We go through seven compounds from patent publication US10548319B2, “Compositions and methods for synthetic amphiphile-induced changes in plant root morphology” (The Curators of the University of Missouri, priority 2014, dated 2020).

Assay [1] has as its system A. thaliana (Col-0) plant. Type of assay: in vivo, Arabidopsis thaliana. To be noted: for Decrease in primary root length: vs PNS. An excerpt: The effect treating a plant with a composition comprising a synthetic amphiphile on root morphology or other physical characteristics or attributes can be quantitated. For example, a change in primary root length can be determined by measuring the difference, if any, in primary root length of a plant treated with the composition compared to the average of a control sample of plants of the same type grown under identical conditions in the absence of the composition. A change in lateral root density can be determined by comparing the lateral root density of a plant treated with the composition to the average lateral root density of a sample grown under identical conditions in the absence of the composition. Lateral root density can be determined by dividing the number of lateral roots by the length of the primary root. In certain embodiments for any quantitated characteristic or attribute, the average value of the control is the average of a statistically significant population of control plants. For example, in certain illustrative embodiments disclosed herein, three trials of about 20 plants each were used to determine the average of the control.
Illustrative of certain embodiments, approximately 60 plants were grown on PNS media (no additives) and root lengths and the number of lateral roots were recorded for each. The data points were averaged to obtain the following baseline values: primary root length=40.4±3.8 mm and number of lateral roots=6.1±0.8, respectively. The lateral root density was obtained by dividing the number of lateral roots by the length (in mm) of the primary root. The control value was (6.1/[…]=) 0.15.
Test compounds were added to the growth medium as 0.2% by volume DMSO. […]
To make 500 mL PN media, 485 mL doubly distilled (“dd”) H2O was first added to an autoclave beaker. The following salts and nutrients were added to a beaker and mixed well: 5 mL of 250 mM of KPO4 (pH 5.5), 2.5 mL of 1M KNO3, 1 mL of 1M MgSO4, 1 mL of 1M Ca(NO3)2, 0.5 mL of Ferric EDTA (1000× or 49 mM) and 0.5 mL of Micronutrients (1000×). In a 1 L autoclaved bottle, 0.6% (3 g) of bacteriological agar was added, followed by 500 mL solution prepared above. The media was autoclaved using the Liquid-30 program.
PNS plates were used for plating sterile Arabidopsis thaliana (Columbia-0) seeds. A sterile stock of PNS agar was maintained. Sterile sucrose was added to PN media to make PNS media. To make PNS media containing 0.5% sucrose, 5 mL of 50% sucrose (sterile filtered) was added to 500 mL of PN agar and mixed well.
The stored PNS media was liquefied using a water bath and allowed to cool to 55° C. The type of plates, compounds, and concentrations to be used were confirmed while the media cooled. The plates were labeled on the cover and the bottom with all the relevant information. 50 mL sterile centrifuge tubes were used to measure 29,940 μL (29.94 mL) PNS media. A fresh sterile 50 mL tube was used for each plate. The desired amount and concentration of compound was added to the PNS media, mixed by inverting the tube and poured in the plate. Total volume of media and compound in each plate was kept constant at 30 mL. A maximum of 60 μL (0.2% by volume) compound was added per plate. For example: 60 μL of 25 mM compound was added to 29.94 mL PNS media to get final concentration of 50 μM compound in PNS media. Plates were incubated at room temperature for 2 hours before plating seeds on them.
Hands and bench area were washed thoroughly before beginning. Sterilizing solution was prepared in a sterile 15 mL centrifuge tube, by mixing 5 mL of 30% bleach and 5 μL of 10% Triton X-100. A. thaliana Col-0 seeds were added to sterile 1.5 mL micro-centrifuge tube. 500 μL of sterilizing solution (30% bleach+0.01% Triton X-100) was added to the seeds, vortexed for 3 seconds and incubated at room temperature for 8 minutes. After 8 minutes, bleach was removed and 1 mL autoclaved MilliQ water was added. […]

The conditions of assay [2]: study of hydraphiles having various chain lengths; cited from earlier work.
Where [3] appears, read: hydraphile 20 μM, lateral roots divided by primary root length.
[4] abbreviates: Table 2, 50 μM in PNS, no unit in table (method: millimeters).
Setting [5] is: Table 2, 20 μM in PNS, no unit in table (method: millimeters).

Like-named read-outs stand apart in the source and are kept apart here. * marks the point of attachment. (C12)2NCOCH2CH2CO = CCCCCCCCCCCCN(CCCCCCCCCCCC)C(=O)CCC(=O)*; OC7 = heptyl ester (C-terminal), CCCCCCCO*

On to `c1ccc(CN2CCOCCOCCN(CCCCCCCCN3CCOCCOCCN(CCCCCCCCN4CCOCCOCCN(Cc5ccccc5)CCOCCOCC4)CCOCCOCC3)CCOCCOCC2)cc1` [C8 hydraphile (1)], for which the Primary root length is 34 ± 7 mm in assay [1] (hydraphile 20 μM in PNS media); 34±7 mm in assay [1] (hydraphile 20 μM in PNS media, listed as C8 benzyl hydraphile (compound 1)); 31 ± 6 mm in assay [1] (hydraphile 50 μM in PNS media); 31±6 mm in assay [1] (hydraphile 50 μM in PNS media, listed as C8 benzyl hydraphile (compound 1)). Further, the “Decrease in primary root length” value in assay [1] (hydraphile 20 μM) turned out to be 9%; in assay [1] (hydraphile 50 μM) it was 19%. The Lateral root density turned out to be 0.15±0.01 in assay [1] (setting [3]) and 0.18±0.03 in assay [1] (hydraphile 50 μM, lateral roots divided by primary root length). Besides, in assay [2], the “Sodium cation conduction” value is given as “did not conduct sodium cation efficiently”.

With “(C12)2NCOCH2CH2CO-AAAPGGG-OC7 ({(C12)2NCOCH2CH2CO}-AAAPGGG-OC7; SMILES CCCCCCCCCCCCN(CCCCCCCCCCCC)C(=O)CCC(=O)N[C@@H](C)C(=O)N[C@@H](C)C(=O)N[C@@H](C)C(=O)N1CCC[C@H]1C(=O)NCC(=O)NCC(=O)NCC(=O)OCCCCCCC) [Compound 10]”, in assay [1] (SAT 50 μM in PNS), the Lateral root density is 0.12, the “Number of lateral roots” value was 3.4 and the Primary root length is listed as 28.4 mm.

Regarding `CCCCCCCCCC(=O)N1CCOCCOCCN(C(=O)CCCCCCCCC)CCOCCOCC1` [C10 lariat ether amide, N,N′-Didecanoyl-4,13-diaza-18-crown-6], in assay [1] (Table 2, 50 μM), the Lateral root density turned out to be 0.19, the Number lateral roots was 0.6 and the “Percent decrease 1° root” value turned out to be 92.4%. In assay [1] (setting [4]), this compound yielded a Primary root length of 3.1 mm.

Take `CCCCCCCCCCCCC(=O)N1CCOCCOCCN(C(=O)CCCCCCCCCCCC)CCOCCOCC1` [C13 lariat ether amide]: the Lateral root density in assay [1] (Table 2, 20 μM) amounted to 0.14; in assay [1] (Table 2, 50 μM) it was 0.14. For the same compound, the Number lateral roots came out at 5.1 in assay [1] (Table 2, 20 μM) and 4.2 in assay [1] (Table 2, 50 μM). In addition, the “Percent decrease 1° root” value in assay [1] (Table 2, 20 μM) was found to be 11.8%; in assay [1] (Table 2, 50 μM), 14.9%. Moreover, the Primary root length in assay [1] (setting [5]) was 36.9 mm; in assay [1] (setting [4]), 35.6 mm.

In the case of `CCCCCCCCCCCCCCN1CCOCCOCCN(CCCCCCCCCCCCCC)CCOCCOCC1` [C14 lariat ether], the Lateral root density in assay [1] (Table 2, 20 μM) came out at 0.17; in assay [1] (Table 2, 50 μM), 0.21. In addition, the Number lateral roots in assay [1] (Table 2, 20 μM) is reported as 6.9; in assay [1] (Table 2, 50 μM), 4.9. In addition, the “Percent decrease 1° root” value in assay [1] (Table 2, 20 μM) came to 0%; in assay [1] (Table 2, 50 μM), 48.4%. The Primary root length in assay [1] (setting [5]) was 41.5 mm; in assay [1] (setting [4]), 20.9 mm.

With `c1ccc(CN2CCOCCOCCN(CCCCCCCCCCCCCCN3CCOCCOCCN(CCCCCCCCCCCCCCN4CCOCCOCCN(Cc5ccccc5)CCOCCOCC4)CCOCCOCC3)CCOCCOCC2)cc1` [C14 hydraphile (2)], the “Number of lateral roots” value in assay [1] (hydraphile 20 μM) worked out at 6.2±0.3. Moreover, the Primary root length is 14 ± 2 mm in assay [1] (hydraphile 20 μM in PNS media); 14±2 mm in assay [1] (hydraphile 20 μM in PNS media, listed as compound 2); 0.7 ± 0.2 mm in assay [1] (hydraphile 50 μM in PNS media); 0.7±0.2 mm in assay [1] (hydraphile 50 μM in PNS media, listed as compound 2). Moreover, the “Decrease in primary root length” value in assay [1] (hydraphile 20 μM) came out at 63%; in assay [1] (hydraphile 50 μM), 98%. For the same compound, the “Increase in lateral root density” value in assay [1] (hydraphile 20 μM, vs control) stood at 4 fold. This compound returned a Lateral root density in assay [1] (setting [3]) of 0.48±0.08.

For the compound `CCCCCCCCCCCC(=O)N1CCOCCOCCN(C(=O)CCCCCCCCCCC)CCOCCOCC1` [C12 lariat ether amide], in assay [1] (Table 2, 50 μM), the Lateral root density worked out at 0.18, the Number lateral roots is 7 and the “Percent decrease 1° root” value is given as 1.73%. In assay [1] (setting [4]), this compound came in with a Primary root length of 39.9 mm.
